Source: patent publication US20020061849A1, “Methods for treatment of diseases associated with inflammation under non-ischemic conditions” (priority 2000, published 2002)

How the values were obtained:
[1] = tested on: lung tissue exposed with LPS; experiment: LPS-inhalation induced lung inflammation, differential counting of lavage cells; conditions: rats, LPS inhalation 5 mg for 20 min, lavage 24 h later, treatment at onset of LPS and after 12 hours (α-MSH 50 μg i.v.; Epoitin 100 U/kg/day i.p.)
Procedure: Studies were performed on male Spraque Dawley rats (Møllegard Breeding centre Ltd., Eiby, Denmark). The rats were maintained on a standard rodent diet (Altromin, Lage, Germany) with free access to water. Inflammation of the lungs (asthma) was induced by LPS inhalation with the animals anesthetized using Midazolam and Hypnorm The LPS was administrated by connecting the rat to a semiclosed breathing system consisting of a MAXIN bottle filled with a mixture of LPS in saline connected to a standard inhalation chamber. Each animals is exposed for 20 min with 5 mg LPS. Twenty-four hours after exposure to LPS rats were killed. Subsequently, lavage was performed by washing the lungs with PBS (5 ml) 6 times. The lung tissue was then centrifuged for 10 min (1000 rpm) and resuspended in 0.5 ml. From each sample 2 blood smears were made. They were air-dryed, fixed and counterstained for differential cell counting.

[2] = tested on: adriamycin-induced nephrotic syndrome; experiment: Adriamycin-induced nephrotic syndrome
Procedure: Protocol IV-1. Rats were treated with adriamycin (7.5 mg/kg i.p.; n=12) and followed for 21 days, respectively. Shams received saline i.p. (n=6). […] The other half received vehicle (saline) in osmotic minipumps.
Protocol IV-3. Rats were treated with adriamycin (7.5 mg/kg i.p.; n=8) and followed for 21 days, respectively. Shams received saline i.p. (n=6). Half of the adriamycin treated animals received epoetin (100 units/kg/day) during the entire experiments. The other half received vehicle (saline).

[3] = tested on: renal function in rats treated with continious LPS infusion; experiment: Systemic LPS infusion by osmotic minipump for three days, renal function; conditions: for increase of GFR (creatinin clearance) compared to the LPS-Vehicle group: LPS infusion for three days; for survival during 3 days of LPS-administration: N=5 per group, mortality in vehicle group 20%
Procedure: To relieve postoperative pain, rats were treated with buprenorfin, 0.2 mg/kg body weight i.p. Two weeks later the rats were anesthetized with halothane-nitrous oxide and a osmotic minipump (Alzet 1003D)filled with a LPS solution was implanted into the abdomen. The mean infusion rate of LPS was 200 μg/kg/hour. All rats except the control rats received LPS infusion. N=5 in all groups.
Protocol II: Systemic LPS-infusion:
II-1. Controls. Untreated rats without LPS infusion.
II-2 Vehicle: Rats receiving LPS infusion treated with 0.5 ml 0.9% NaCl twice daily.
II-3 rh-EPO: Rats receiving LPS infusion treated with 200 I.U. epoitin alpha (EPO)/kg body weight in 0.5 ml 0.9% NaCl twice daily.

[4] = tested on: AQP2; experiment: Bilateral ureteral obstruction (BUO), semiquantitative immunoblotting of AQP2; type: in vivo, rat; conditions: inner medulla, 24 h BUO; α-MSH 50 μg i.v. at onset and 12 hours later (nontreated 13±4%); epoitin 100 U/kg/day i.p. (nontreated 16±3%)
Procedure: (§1) Adult Munich-Wistar rats were anesthetized with halothane and placed on a heating board under an operating microscope, Through a midline abdominal incision both ureters were exposed and occluded by placing a 5-mm piece of bisected polyethylene tubing (PE-50) around the midportion of each ureter. The ureter was then occluded by tightening the tubing with a 5-0 silk ligature. 24 hours later, the obstructed ureters were decompressed by removal of the ligature and the PE-50 tubing. Done in this manner, both ureters could be completely occluded for 24 h and without evidence of functional impairment of ureteral function and rats followed up to several days after release of obstruction.
(§2) Protocol III-1: This protocol included 1) Rats with BUO for 24 hours (n=20) and 2) sham-operated rats (n=10).
Protocol III-6: This protocol included 1) Rats with BUO for 24 hours and 2) sham-operated rats. […]
(§3) ECL films with bands within the linear range were scanned using an AGFA scanner (ARCUS II) and Corel Photopaint Software to control the scanner. […] The labeling density was determined of blots where samples of kidneys from α-MSH treated and nontreated groups were run together with samples from control kidneys. […]

[5] = tested on: renal function in rats with BUO; experiment: Bilateral ureteral obstruction (BUO), plasma parameters and clearance studies; type: in vivo, rat
Procedure: as §1, §2
(§4) Protocol III-3: This protocol included 1) Rats with BUO for 24 hours and followed by release for 48 hours. The rats were divided into two groups: α-MSH nontreated (n=10) and α-MSH treated (n=13). α-MSH (50 μg) was given with micro-osmotic pump via jugular vein at the onset of BUO. 2) Sham operated rats (n=8) treated with vehicle with micro-osmotic pump.
1) Rats with BUO for 24 hours followed by release for 48 hours (n=10) and 2) sham-operated rats (n=5).
Weight, water intake, food intake and urine output were observed during the rats were maintained in the metabolic cages. Urine was collected over 24-h periods throughout the study. Urine volume, osmolality, creatinine, sodium and potassium concentration were measured. Plasma was collected from abdominal aorta at the time of sacrifice for measurement of sodium and potassium concentration, creatinine, and osmolality. In protocols 4 and 9 detailed examinations of renal function was performed: The experiments were carried out between 8 a.m. and 1 p.m. The rats were transferred to a restraining cage and connected to infusion pumps via the vein catheter and to a BP transducer via the arterial catheter. Urine was collected in three periods of 20 min preceded by an equilibration period of 105 min. Throughoutthe experiment, a half isotone saline (77 mM NaCl) was infused at a rate of 70 μl/min to maintain a minimum urine flow necessary for accuracy of the bladder emptying. ^14C-tetraethylammonium bromide (0.83 μCi/ml; New England Nuclear, Boston, Mass.), together with ^3H-inulin (2.5 μCi/ml; Amersham, Rainham, United Kindgom) and LiCI (13 mmol/L), were infused together with the saline as markers of effective renal plasma flow (ERPF), GFR, and tubular fluid delivery from proximal tubules (Vprox), respectively. A bolus of markers four times the continuous infusion velocity was given in the first 15 min. Blood samples (200 μl) were drawn from the arterial catheter after 105 and 165 min. Blood substitution with donor blood was given after each blood sample. Mean arterial BP was recorded continuously using a Uniflow™ transducer (Baxter, Irvine, Calif.) connected to a preamplifier and PC registration. Clearance experiments were carried out in BUO and SHAM rats 7 days prior to obstruction and 48 hours after release of BUO.
Urine volume was determined by gravimetric means.

[6] = tested on: AQP3; experiment: Bilateral ureteral obstruction (BUO), semiquantitative immunoblotting of AQP3; type: in vivo, rat; conditions: inner medulla
Procedure: as §1, §2
Protocol III-2: This protocol included 1) Rats with BUO for 24 hours and followed by release for 5 hours (n=10) and 2) Sham operated rats (n=5). […]
as §3

[7] = tested on: purimycin-induced nephrotic syndrome; experiment: Purimycin (PAN)-induced nephrotic syndrome
Procedure: Nephrotic syndrome was induced by a single i.p. or s.c. injection of adriamycin or purimycin (at various doses) and the rats were followed for 7 days-21 days. Development of severe nephrotic syndrome was established by monitoring the total body weight, urinary protein excretion (proteinuria) and at time of ending the experiment the volume of fluid in the abdominal cavity was determined (rats develop severe water retention and ascites).
Protocol IV-2. Rats were treated with purimycin (100 mg/kg i.p., n=6) and followed for 11 days, respectively.
To determine the levels of proteinuria in experimental nephrotic syndrome urine was examined daily using Albym (Boehringer-Mannheim).

[8] = tested on: Na,K-ATPase; experiment: Bilateral ureteral obstruction (BUO), semiquantitative immunoblotting of Na,K-ATPase; type: in vivo, rat; conditions: whole kidney; for Na-K-ATPase levels, % of control: nontreated 35-50% of control levels
Procedure: as §1, §2
(§5) Protocol III-2: This protocol included 1) Rats with BUO for 24 hours and followed by release for 5 hours (n=10) and 2) Sham operated rats (n=5). The rats with BUO-R were divided into two groups: α-MSH nontreated (n=5) and α-MSH treated (n=5). α-MSH ([…], i.v.) was given at the onset of BUO, 12 hours later and at the onset of release.
as §4, with “pump. […]” for “pump.”
as §3

[9] = tested on: AQP1; experiment: Bilateral ureteral obstruction (BUO), semiquantitative immunoblotting of AQP1; type: in vivo, rat
Procedure: as §1, §5, §4
Inner medulla and whole kidneys were homogenized (0.3 M sucrose, 25 mM imidazole, 1 mM EDTA, pH 7.2, containing 8.5 μM leupeptin. 1 mM phenylmethyl sulfonylfluoride) using an ultra-turrax T8 homogenizer (IKA Labortechnik, Germany), at 5 strokes for 20 seconds (inner medulla) or at 5.5 strokes for 30 seconds (whole kidney) and the homogenate was centrifuged in an Eppendorf centrifuge at 4000 g for 15 minutes at 4° C. to remove whole cells, nuclei and mitochondria. Gel samples (Laemmli sample buffer containing 2% SDS) were made of this pellet.
[…] For each gel, identical gel was run in parallel and subjected to Coomassie staining to assure identical loading. Then gels were subjected to immunoblotting. […] The labeling was visualized with horseradish peroxidase (HRP)-conjugated secondary antibodies (P448, DAKO, Glostrup Denmark, diluted as 1:3000) using an enhanced chemiluminescence system (ECL, Amersham International, UK).
as §3, with “scanner. For AQP1 and AQP2, both the 29-kDa and the 35- to 50-kDa bands (corresponding to nonglycosylated and the glycosylated species) were scanned.” for “scanner.”

[10] = BUO for 24 h followed by 48 h of release

epoitin alpha
Differential counting of cells %, Eosinofiles [1]: 0.7 ± 0.6% | Differential counting of cells %, Lymfocytes [1]: 77.1 ± 9.9% | Differential counting of cells %, Monocytes [1]: 11.4 ± 4.6% | Differential counting of cells %, Neutrofiles [1]: 10.9 ± 12.7% | Differential counting of cells %, Eosinofiles ([1]; listed as epoitin): 0.7±0.6% | Differential counting of cells %, Neutrofiles ([1]; listed as epoitin): 10.9±12.7% | ascites formation, result in words ([2]; adriamycin-induced nephrotic syndrome, EPO once every 24 hours): prevented the ascites formation | increase of GFR (creatinin clearance) compared to the LPS-Vehicle group [3]: 51% | survival during 3 days of LPS-administration [3]: All animals survived | AQP2 expression, % of sham level [4]: 30±18%

α-melanocyte-stimulating hormone [α-MSH]
plasma sodium levels ([5]; 24 h BUO, without α-MSH 135±2 mmol/L): 139 ± 0.6 mmol/L | Glomerular filtration rate (GFR) ([5]; 48 hours after release of BUO, SHAM 840±105): 705±85 μl/min/100 g | Effective renal plasma flow (ERPF) ([5]; 48 hours after release of BUO, SHAM 2633±457): 2598±129 μl/min/100 g | plasma urea ([5]; BUO for 24 h followed by 48 of release, nontreated 35±9 mmol/l): 13 ± 2 mmol/L | Plasma creatinine levels ([5]; BUO for 24 h followed by 48 of release, nontreated 160±34 μmol/l): 79 ± 34 µmol/L | ERPF, result in words [5, 10]: completely normalized | GFR, result in words [5, 10]: completely normalized | Differential counting of cells %, Eosinofiles [1]: 1.8±1.3% | Differential counting of cells %, Lymfocytes [1]: 72.3 ± 12.1% | Differential counting of cells %, Monocytes [1]: 12.3 ± 7.4% | AQP3 expression, % of sham level ([6]; 24 h BUO followed by release for 5 hours, nontreated 14±5%): 34±4% | AQP3 expression, % of sham level ([6]; 24 h BUO, α-MSH 50 μg i.v. at onset and 12 hours later, nontreated 19±4%): 44±3% | prevention of ascites production ([2]; adriamycin i.p. (Protocol IV-1), α-MSH for 3-4 days after injection): 89±7% | increase of GFR (creatinin clearance) compared to the LPS-Vehicle group [3]: 57% | survival during 3 days of LPS-administration [3]: All animals survived | proteinuria levels ([7]; PAN rats at day 5 after PAN injection (FIG. 3), result in words): marked reduction | proteinuria ([7]; low dose purimycin treatment (Protocol IV-2), result in words): marked reduction | reduction of ascites production ([7]; low dose purimycin treatment, n=6 (Protocol IV-2)): 80±8% | preventive effect on nephrotic syndrome ([7]; very servere purimycin (high dose) induced nephrotic syndrome, result in words): less potent effect | Na-K-ATPase levels, % of control ([8]; 24 h BUO followed by 5 h of release): 102±14% | Na,K-ATPase levels ([8]; 24 h BUO, result in words): completely normalized | Na-K-ATPase levels, % of control ([8]; 48 hours after release of BUO): 114±10% | AQP2 expression, % of sham level [4]: 38±5% | AQP1 expression, % of sham level ([9]; outer medulla and cortex, 24 h BUO followed by release for 5 hours, nontreated 35±2%): 62±9% | AQP1 expression, % of sham level ([9]; outer medulla and cortex, 24 h BUO followed by release for 48 hours, α-MSH by micro-osmotic pump): 73±8% | AQP1 expression, % of sham level ([9]; whole kidney, 24 h BUO followed by release for 5 hours, α-MSH 50 μg i.v. at onset, 12 hours later and at release, nontreated 7±2%): 81±21% | AQP1 expression, % of sham level ([9]; whole kidney, 24 h BUO followed by release for 48 hours, α-MSH 50 μg by micro-osmotic pump, nontreated 24±5%): 58±6%
